Results from patent US9447148B2, “Melanocortin-1 receptor-specific cyclic peptides” (Palatin Technologies, Inc., priority 2009, dated 2016).
Bridge positions count the residues as written; N and C are the ends. Square brackets hold non-standard residues; d marks the D form. Peptide text beside a SMILES is read from it. dPhe(3,4-F2) = N[C@H](Cc1ccc(F)c(F)c1)C(=O)O; dPhe(3-Cl) = N[C@H](Cc1cccc(Cl)c1)C(=O)O; dPhe(4-Cl) = N[C@H](Cc1ccc(Cl)cc1)C(=O)O; dPhe(2-Cl) = N[C@H](Cc1ccccc1Cl)C(=O)O; dPhe(4-F) = N[C@H](Cc1ccc(F)cc1)C(=O)O; dPhe(2-F) = N[C@H](Cc1ccccc1F)C(=O)O; Nle = CCCC[C@H](N)C(=O)O; Orn = NCCC[C@H](N)C(=O)O; Dab = NCC[C@H](N)C(=O)O

Assays:
hMCR-4 = hMCR-4 (Homo sapiens (Human), UniProt P32245); assay: Competitive inhibition binding assay using [I125]-NDP-α-MSH, hMCR-4; details: membrane homogenates of HEK-293 cells, human recombinant receptor, averaged, read-out: MC-4 Ki (average)
Description: (§1) A competitive inhibition binding assay was performed using membrane homogenates prepared from HEK-293 cells that express recombinant hMCR-1a or hMCR-4 (in each instance where the h prefix refers to human), or alternatively membrane homogenates from B16-F10 mouse melanoma cells containing endogenous murine MCR-1. In the examples that follow, all MCR-1 and MCR-4 values are for human recombinant receptors, unless otherwise noted. Assays were performed in 96 well polypropylene round-bottom plates (VWR catalog number 12777-030). […] After incubation for 90 minutes at 37° C., the assay mixture was filtered onto GF/B Unifilter plates (Perkin-Elmer catalog number 6005177) and washed with 3 mL of ice-cold buffer per well. Filters were air dried and 35 μL of scintillation cocktail added to each well. Plates were counted in a Microbeta counter for bound radioactivity. […] Each assay was conducted in duplicate and the actual mean values are described, with results less than 0% reported as 0%. Ki values for peptides of the present invention were determined using Graph-Pad Prism® curve-fitting software.
(§2) Peptides of the following structures were synthesized and averaged MCR-1 and MCR-4 Ki values were determined as indicated. […] All results are expressed in nM except for Emax values, which are percentage values. Peptides with the captioned primary sequence were synthesized and purified as described in Section 5 above, with the resulting peptide having the structure depicted.

hMCR-1a = hMCR-1a (Homo sapiens (Human), UniProt Q01726); assay: Competitive inhibition binding assay using [I125]-NDP-α-MSH, hMCR-1a; details: membrane homogenates of HEK-293 cells, human recombinant receptor, averaged, read-out: MC-1 Ki (average)
Description: as §1, §2

hMCR-1 = hMCR-1 (Homo sapiens (Human), UniProt Q01726); assay: Assay for agonist activity: intracellular cAMP accumulation in HBL human melanoma cells; format: cell-based; details: for EC50: HBL cells expressing hMCR-1, averaged, read-out: MC-1 EC50 (average; cAMP HBL)
Description: Confluent HBL cells that express hMCR-1 or HEK-293 cells that express recombinant hMCR-4 were detached from culture plates by incubation in enzyme-free cell dissociation buffer. Dispersed cells were suspended in Earle's Balanced Salt Solution containing 10 mM HEPES (pH 7.5), 1 mM MgCl2, 1 mM glutamine, 0.5% albumin and 0.3 mM 3-isobutyl-1-methyl-xanthine (IBMX), a phosphodiesterase inhibitor. The cells were plated in 96-well plates at a density of 0.4×10^5 cells per well for HBL cells and 0.5×10^5 cells per well for HEK-293 cells and pre-incubated for 10 minutes. Cells were exposed for 15 minutes at 37° C. to peptides of the present invention dissolved in DMSO (final DMSO concentration of 1%) at a concentration range of 0.05-5000 nM in a total assay volume of 200 μL. […] Data analysis was performed by nonlinear regression analysis with Graph-Pad Prism® software.
as §2

hMCR-4, sequence (P32245 whole entry): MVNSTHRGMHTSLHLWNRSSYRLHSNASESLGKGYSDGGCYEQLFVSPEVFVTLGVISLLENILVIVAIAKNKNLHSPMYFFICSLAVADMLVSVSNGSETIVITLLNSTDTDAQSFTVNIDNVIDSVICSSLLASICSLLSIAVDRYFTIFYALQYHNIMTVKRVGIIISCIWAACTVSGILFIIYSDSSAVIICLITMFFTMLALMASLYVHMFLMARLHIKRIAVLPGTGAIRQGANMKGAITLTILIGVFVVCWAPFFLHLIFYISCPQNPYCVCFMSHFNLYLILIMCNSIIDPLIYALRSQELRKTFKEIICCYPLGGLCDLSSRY
hMCR-1a, sequence (Q01726 whole entry): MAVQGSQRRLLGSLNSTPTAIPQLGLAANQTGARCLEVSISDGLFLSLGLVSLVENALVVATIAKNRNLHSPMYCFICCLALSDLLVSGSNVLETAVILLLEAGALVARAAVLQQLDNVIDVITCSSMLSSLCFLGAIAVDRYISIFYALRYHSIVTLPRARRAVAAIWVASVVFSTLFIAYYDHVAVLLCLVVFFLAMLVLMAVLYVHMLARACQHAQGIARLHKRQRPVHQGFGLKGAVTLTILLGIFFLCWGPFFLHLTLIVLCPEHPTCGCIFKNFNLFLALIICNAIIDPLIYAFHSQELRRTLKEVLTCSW
hMCR-1, sequence (Q01726 whole entry): as above

Row | Ki (hMCR-4) [nM] | Ki (hMCR-1a) [nM] | EC50 (hMCR-1) [nM] | Emax (hMCR-1; HBL, HBL cells, maximum efficacy compared to reference agonist NDP-α-MSH, read-out: MC-1 Emax (average; cAMP HBL)) [%] | SMILES
1 | 4700 | 1 | – | 81 | CCCC[C@H](NC(C)=O)C(=O)N[C@H]1CCC(=O)NC[C@@H](C(=O)N[C@@H](Cc2c[nH]c3ccccc23)C(=O)O)NC(=O)[C@H](CCCNC(=N)N)NC(=O)[C@@H](Cc2ccccc2)NC(=O)[C@H](Cc2c[nH]cn2)NC1=O [Example 9.26, Ac-Nle-cyclo(Glu-His-D-Phe-Arg-Dap)-Trp-OH]
2 | 10000 | 9 | 4 | – | CCCC[C@H](NC(C)=O)C(=O)N[C@H]1CCC(=O)NCC[C@@H](C(=O)N[C@@H](Cc2c[nH]c3ccccc23)C(N)=O)NC(=O)CNC(=O)[C@@H](Cc2ccccc2)NC(=O)[C@H](Cc2c[nH]cn2)NC1=O [Example 9.34, Ac-Nle-cyclo(Glu-His-D-Phe-Gly-Dab)-Trp-NH2] (Ac-[Nle]EH[dF]G[Dab]W-NH2; lactam 2-6)
3 | 1240 | 2 | 0.1 | – | CCCC[C@H](NC(C)=O)C(=O)N[C@H]1CCC(=O)NCC[C@@H](C(N)=O)NC(=O)[C@H](CCCNC(=N)N)NC(=O)[C@@H](Cc2ccc(Cl)cc2)NC(=O)[C@H](CCCN)NC1=O [Example 9.59, Ac-Nle-cyclo(Glu-Orn-D-Phe(4-Cl)-Arg-Dab)-NH2] (Ac-[Nle]E[Orn][dPhe(4-Cl)]R[Dab]-NH2; lactam 2-6)
4 | 10000 | 20 | 1 | – | CCCC[C@H](NC(C)=O)C(=O)N[C@H]1CCC(=O)NCC[C@@H](C(N)=O)NC(=O)[C@H](CCCNC(=N)N)NC(=O)[C@@H](Cc2ccc(F)cc2)NC(=O)[C@H](CCCN)NC1=O [Example 9.61, Ac-Nle-cyclo(Glu-Orn-D-Phe(4-F)-Arg-Dab)-NH2] (Ac-[Nle]E[Orn][dPhe(4-F)]R[Dab]-NH2; lactam 2-6)
5 | 7480 | 2 | 0.08 | – | CCCC[C@H](NC(C)=O)C(=O)N[C@H]1CCC(=O)NCC[C@@H](C(=O)N[C@@H](C)C(N)=O)NC(=O)[C@H](CCCNC(=N)N)NC(=O)[C@@H](Cc2ccccc2)NC(=O)[C@H](Cc2c[nH]cn2)NC1=O [Example 9.25, Ac-Nle-cyclo(Glu-His-D-Phe-Arg-Dab)-Ala-NH2] (Ac-[Nle]EH[dF]R[Dab]A-NH2; lactam 2-6)
6 | 10000 | 30 | 1 | – | CCCC[C@H](NC(C)=O)C(=O)N[C@H]1CCC(=O)NCC[C@@H](C(N)=O)NC(=O)[C@H](CCCNC(=N)N)NC(=O)[C@@H](Cc2ccccc2Cl)NC(=O)[C@H](CCCN)NC1=O [Example 9.57, Ac-Nle-cyclo(Glu-Orn-D-Phe(2-Cl)-Arg-Dab)-NH2] (Ac-[Nle]E[Orn][dPhe(2-Cl)]R[Dab]-NH2; lactam 2-6)
7 | 7380 | 2 | 0.175 | – | CCCC[C@H](NC(C)=O)C(=O)N[C@H]1CCC(=O)NCC[C@@H](C(=O)N[C@@H](CCCCN)C(N)=O)NC(=O)[C@H](CCCNC(=N)N)NC(=O)[C@@H](Cc2ccccc2)NC(=O)[C@H](Cc2c[nH]cn2)NC1=O [Example 9.39, Ac-Nle-cyclo(Glu-His-D-Phe-Arg-Dab)-Lys-NH2] (Ac-[Nle]EH[dF]R[Dab]K-NH2; lactam 2-6)
8 | 10000 | 0.8 | 0.115 | – | CCCC[C@H](NC(C)=O)C(=O)N[C@H]1CCC(=O)NCC[C@@H](C(=O)N[C@@H](Cc2c[nH]c3ccccc23)C(N)=O)NC(=O)[C@H](C)NC(=O)[C@@H](Cc2ccccc2)NC(=O)[C@H](Cc2c[nH]cn2)NC1=O [Example 9.35, Ac-Nle-cyclo(Glu-His-D-Phe-Ala-Dab)-Trp-NH2] (Ac-[Nle]EH[dF]A[Dab]W-NH2; lactam 2-6)
9 | 10000 | 7 | 0.32 | – | CCCC[C@H](NC(C)=O)C(=O)N[C@H]1CCC(=O)NCC[C@@H](C(N)=O)NC(=O)[C@H](CCCNC(=N)N)NC(=O)[C@@H](Cc2ccccc2)NC(=O)[C@H](Cc2c[nH]cn2)NC1=O [Example 9.32, Ac-Nle-cyclo(Glu-His-D-Phe-Arg-Dab)-NH2] (Ac-[Nle]EH[dF]R[Dab]-NH2; lactam 2-6)
10 | 10000 | 40 | 1 | – | CCCC[C@H](NC(C)=O)C(=O)N[C@H]1CCC(=O)NCC[C@@H](C(N)=O)NC(=O)[C@H](CCCNC(=N)N)NC(=O)[C@@H](Cc2ccc(F)c(F)c2)NC(=O)[C@H](CCCN)NC1=O [Example 9.62, Ac-Nle-cyclo(Glu-Orn-D-Phe(3,4-F)-Arg-Dab)-NH2] (Ac-[Nle]E[Orn][dPhe(3,4-F2)]R[Dab]-NH2; lactam 2-6)

Row | SMILES | Ki (hMCR-4) [nM] | Ki (hMCR-1a) [nM] | EC50 (hMCR-1) [nM] | Emax (hMCR-1; HBL, HBL cells, maximum efficacy compared to reference agonist NDP-α-MSH, read-out: MC-1 Emax (average; cAMP HBL)) [%]
11 | CCCC[C@H](NC(C)=O)C(=O)N[C@H]1CCC(=O)NCC[C@@H](C(N)=O)NC(=O)[C@H](CCCNC(=N)N)NC(=O)[C@@H](Cc2ccccc2F)NC(=O)[C@H](CCCN)NC1=O [Example 9.60, Ac-Nle-cyclo(Glu-Orn-D-Phe(2-F)-Arg-Dab)-NH2] (Ac-[Nle]E[Orn][dPhe(2-F)]R[Dab]-NH2; lactam 2-6) | 10000 | 18 | 0.8 | –
12 | CCCC[C@H](NC(C)=O)C(=O)N[C@H]1CCC(=O)NCC[C@@H](C(N)=O)NC(=O)[C@H](CCCNC(=N)N)NC(=O)[C@@H](Cc2cccc(Cl)c2)NC(=O)[C@H](CCCN)NC1=O [Example 9.58, Ac-Nle-cyclo(Glu-Orn-D-Phe(3-Cl)-Arg-Dab)-NH2] (Ac-[Nle]E[Orn][dPhe(3-Cl)]R[Dab]-NH2; lactam 2-6) | 10000 | 35 | 2 | –
